Experimental data from ChEMBL document CHEMBL1201862, “PubChem BioAssay data set” (2004).
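Values below derive from 48-hour exposures of cells grown in 96-well plates, with endpoints linearly interpolated between the two concentrations bracketing the appropriate inhibition level. Here, GI50 denotes the concentration required for 50% inhibition of growth.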 Activity calls are given as the source filed them. Cut-off read from the data, not from the text of the source: active = GI50 up to about 1.1 µM and inactive = higher.

Experiments:
Test in all cases: growth of human tumour cells (NCI), 48 h
OVCAR-8 = system: OVCAR-8
SK-MEL-2 = system: SK-MEL-2
NCI/ADR-RES = system: NCI/ADR-RES
HCC 2998 = system: HCC 2998
SF-268 = system: SF-268
UACC-62 = system: UACC-62
HCT-15 = system: HCT-15
Hs-578T = system: Hs-578T
786-0 = system: 786-0
HT-29 = system: HT-29
MCF7 = system: MCF7
SK-OV-3 = system: SK-OV-3
NCI-H226 = system: NCI-H226
Malme-3M = system: Malme-3M
NCI-H23 = system: NCI-H23
SNB-19 = system: SNB-19
CCRF-CEM = system: CCRF-CEM
BT-549 = system: BT-549
RPMI-8226 = system: RPMI-8226
UACC-257 = system: UACC-257
SK-MEL-28 = system: SK-MEL-28
MDA-MB-231 = system: MDA-MB-231
UO-31 = system: UO-31
NCI-H522 = system: NCI-H522
HCT-116 = system: HCT-116
SW-620 = system: SW-620
OVCAR-3 = system: OVCAR-3
MDA-N = system: MDA-N
ACHN = system: ACHN
RXF 393 = system: RXF 393
M14 = system: M14
PC-3 = system: PC-3
HOP-92 = system: HOP-92
T47D = system: T47D
MDA-MB-435 = system: MDA-MB-435
MOLT-4 = system: MOLT-4
SK-MEL-5 = system: SK-MEL-5
HOP-62 = system: HOP-62
TK-10 = system: TK-10
SF-295 = system: SF-295
NCI-H460 = system: NCI-H460
CAKI-1 = system: CAKI-1
SN12C = system: SN12C
OVCAR-5 = system: OVCAR-5
LOX IMVI = system: LOX IMVI
SF-539 = system: SF-539
EKVX = system: EKVX
IGROV-1 = system: IGROV-1
SNB-75 = system: SNB-75
OVCAR-4 = system: OVCAR-4
COLO 205 = system: COLO 205
KM12 = system: KM12
A549 = system: A549
A498 = system: A498
U-251 = system: U-251
DU-145 = system: DU-145

In the case of NC1=CC(C(=O)c2ccncc2)c2nc3ccccc3nc21 (stereo unspecified), the GI50 (OVCAR-8) is reported as 63.5 µM (inactive), the GI50 (SK-MEL-2) is reported as > 100 µM (inactive) and the GI50 (NCI/ADR-RES) is reported as > 100 µM (inactive). For the same compound, the GI50 (HCC 2998) was > 100 µM (inactive), the GI50 (SF-268) was > 100 µM (inactive) and the GI50 (UACC-62) was > 100 µM (inactive). For the same compound, the GI50 (HCT-15) was 92.7 µM, the GI50 (Hs-578T) was 57 µM (inactive) and the GI50 (786-0) was > 100 µM (inactive). For the same compound, the GI50 (HT-29) was 68.5 µM (inactive), the GI50 (MCF7) was > 100 µM (inactive) and the GI50 (SK-OV-3) was > 100 µM (inactive). For the same compound, the GI50 (NCI-H226) was > 100 µM (inactive), the GI50 (Malme-3M) was > 100 µM (inactive) and the GI50 (NCI-H23) was 63 µM (inactive). For the same compound, the GI50 (SNB-19) was > 100 µM (inactive), the GI50 (CCRF-CEM) was > 100 µM (inactive) and the GI50 (BT-549) was > 100 µM (inactive). The GI50 (RPMI-8226) was > 100 µM (inactive), the GI50 (UACC-257) was > 100 µM (inactive) and the GI50 (SK-MEL-28) was > 100 µM (inactive). For the same compound, the GI50 (MDA-MB-231) was > 100 µM (inactive), the GI50 (UO-31) was > 100 µM (inactive) and the GI50 (NCI-H522) was > 100 µM (inactive). For the same compound, the GI50 (HCT-116) was > 100 µM (inactive), the GI50 (SW-620) was > 100 µM (inactive) and the GI50 (OVCAR-3) was > 100 µM (inactive). For the same compound, the GI50 (MDA-N) was > 100 µM (inactive), the GI50 (ACHN) was 59.2 µM (inactive) and the GI50 (RXF 393) was > 100 µM (inactive). For the same compound, the GI50 (M14) was > 100 µM (inactive), the GI50 (PC-3) was > 100 µM (inactive) and the GI50 (HOP-92) was > 100 µM (inactive). For the same compound, the GI50 (T47D) was > 100 µM (inactive), the GI50 (MDA-MB-435) was > 100 µM (inactive) and the GI50 (MOLT-4) was > 100 µM (inactive). For the same compound, the GI50 (SK-MEL-5) was > 100 µM (inactive), the GI50 (HOP-62) was 44.2 µM (inactive) and the GI50 (TK-10) was > 100 µM (inactive). For the same compound, the GI50 (SF-295) was 94.4 µM (inactive), the GI50 (NCI-H460) was 75.5 µM (inactive) and the GI50 (CAKI-1) was 42.2 µM (inactive). The GI50 (SN12C) was > 100 µM (inactive), the GI50 (OVCAR-5) was > 100 µM (inactive) and the GI50 (LOX IMVI) was 22.7 µM (inactive). For the same compound, the GI50 (SF-539) was > 100 µM (inactive), the GI50 (EKVX) was > 100 µM (inactive) and the GI50 (IGROV-1) was 46.6 µM (inactive). For the same compound, the GI50 (SNB-75) was 52 µM (inactive), the GI50 (OVCAR-4) was > 100 µM (inactive) and the GI50 (COLO 205) was > 100 µM (inactive). The GI50 (KM12) was > 100 µM (inactive), the GI50 (A549) was > 100 µM (inactive) and the GI50 (A498) was > 100 µM (inactive). For the same compound, the GI50 (U-251) was > 100 µM (inactive) and the GI50 (DU-145) was > 100 µM (inactive).
